Results from ChEMBL document CHEMBL1201862, “PubChem BioAssay data set” (2004).
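Assay format: 96-well plates, 48-hour exposure. The concentration for 50% growth inhibition is given as GI50.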 The source made the active and inactive calls. No stated cut-off is given here; in the data, active = GI50 up to about 1.1 µM and inactive = higher.

Columns and labels:
Test in all cases: NCI anticancer screen, dose series, 48 h
SNB-75 = system: SNB-75
UACC-257 = system: UACC-257
ACHN = system: ACHN
BT-549 = system: BT-549
IGROV-1 = system: IGROV-1
SW-620 = system: SW-620
OVCAR-8 = system: OVCAR-8
UACC-62 = system: UACC-62
MCF7 = system: MCF7
T47D = system: T47D
NCI-H460 = system: NCI-H460
SK-OV-3 = system: SK-OV-3
NCI-H23 = system: NCI-H23
HOP-92 = system: HOP-92
SK-MEL-5 = system: SK-MEL-5
DU-145 = system: DU-145
OVCAR-5 = system: OVCAR-5
CAKI-1 = system: CAKI-1
OVCAR-3 = system: OVCAR-3
SN12C = system: SN12C
EKVX = system: EKVX
K562 = system: K562
SK-MEL-28 = system: SK-MEL-28
RXF 393 = system: RXF 393
A549 = system: A549
HL-60 = system: HL-60
LOX IMVI = system: LOX IMVI
MDA-MB-231 = system: MDA-MB-231
U-251 = system: U-251
SF-539 = system: SF-539
UO-31 = system: UO-31
MDA-N = system: MDA-N
TK-10 = system: TK-10
HCT-116 = system: HCT-116
OVCAR-4 = system: OVCAR-4
SR = system: SR
MDA-MB-435 = system: MDA-MB-435
M14 = system: M14
CCRF-CEM = system: CCRF-CEM
786-0 = system: 786-0
SF-268 = system: SF-268
SF-295 = system: SF-295
NCI/ADR-RES = system: NCI/ADR-RES
Malme-3M = system: Malme-3M
SNB-19 = system: SNB-19
NCI-H522 = system: NCI-H522
COLO 205 = system: COLO 205
NCI-H226 = system: NCI-H226
MOLT-4 = system: MOLT-4
Hs-578T = system: Hs-578T
A498 = system: A498
HOP-62 = system: HOP-62
HCT-15 = system: HCT-15
PC-3 = system: PC-3
SK-MEL-2 = system: SK-MEL-2
RPMI-8226 = system: RPMI-8226
KM12 = system: KM12
HT-29 = system: HT-29

Compound: CSc1cccc(NC(=O)OC2CCCCCCCCCCC2)c1
- GI50 (SNB-75): 35.2 µM (inactive)
- GI50 (UACC-257): 16 µM (inactive)
- GI50 (ACHN): 27.7 µM (inactive)
- GI50 (BT-549): 34.8 µM (inactive)
- GI50 (IGROV-1): 33.4 µM (inactive)
- GI50 (SW-620): 18.8 µM (inactive)
- GI50 (OVCAR-8): 26.7 µM (inactive)
- GI50 (UACC-62): 18.1 µM (inactive)
- GI50 (MCF7): 20.6 µM (inactive)
- GI50 (T47D): 25.4 µM (inactive)
- GI50 (NCI-H460): 16.4 µM (inactive)
- GI50 (SK-OV-3): 16.6 µM (inactive)
- GI50 (NCI-H23): 24.4 µM (inactive)
- GI50 (HOP-92): 27.4 µM (inactive)
- GI50 (SK-MEL-5): 15.4 µM (inactive)
- GI50 (DU-145): 31.8 µM (inactive)
- GI50 (OVCAR-5): 30.3 µM (inactive)
- GI50 (CAKI-1): 17.6 µM (inactive)
- GI50 (OVCAR-3): 10.5 µM (inactive)
- GI50 (SN12C): 15.5 µM (inactive)
- GI50 (EKVX): 19.1 µM (inactive)
- GI50 (K562): 16.4 µM (inactive)
- GI50 (SK-MEL-28): 39.7 µM (inactive)
- GI50 (RXF 393): 18.8 µM (inactive)
- GI50 (A549): 26.9 µM (inactive)
- GI50 (HL-60): 14.3 µM (inactive)
- GI50 (LOX IMVI): 18 µM (inactive)
- GI50 (MDA-MB-231): 23.6 µM (inactive)
- GI50 (U-251): 18.8 µM (inactive)
- GI50 (SF-539): 24.4 µM (inactive)
- GI50 (UO-31): 7.91 µM (inactive)
- GI50 (MDA-N): 21 µM (inactive)
- GI50 (TK-10): 26.9 µM (inactive)
- GI50 (HCT-116): 15.1 µM (inactive)
- GI50 (OVCAR-4): 10.4 µM (inactive)
- GI50 (SR): 26.9 µM (inactive)
- GI50 (MDA-MB-435): 15.7 µM (inactive)
- GI50 (M14): 22.3 µM (inactive)
- GI50 (CCRF-CEM): 16.4 µM (inactive)
- GI50 (786-0): 20.9 µM (inactive)
- GI50 (SF-268): 29.8 µM (inactive)
- GI50 (SF-295): 11.9 µM (inactive)
- GI50 (NCI/ADR-RES): 21.4 µM (inactive)
- GI50 (Malme-3M): 24.8 µM (inactive)
- GI50 (SNB-19): 37.5 µM (inactive)
- GI50 (NCI-H522): 13.2 µM (inactive)
- GI50 (COLO 205): 14.5 µM (inactive)
- GI50 (NCI-H226): 29.9 µM (inactive)
- GI50 (MOLT-4): 23.5 µM (inactive)
- GI50 (Hs-578T): 34.4 µM (inactive)
- GI50 (A498): 21.7 µM (inactive)
- GI50 (HOP-62): 18.8 µM (inactive)
- GI50 (HCT-15): 28.8 µM
- GI50 (PC-3): 31 µM (inactive)
- GI50 (SK-MEL-2): 18.4 µM (inactive)
- GI50 (RPMI-8226): 14.7 µM (inactive)
- GI50 (KM12): 13.3 µM (inactive)
- GI50 (HT-29): 16.6 µM (inactive)

Compound: COc1c(O)cc2c(c1O)C(=O)/C(=C/c1ccc(O)cc1)CO2
- GI50 (SNB-75): 21.2 µM (inactive)
- GI50 (UACC-257): 31.9 µM (inactive)
- GI50 (ACHN): 19.8 µM (inactive)
- GI50 (BT-549): 32.9 µM (inactive)
- GI50 (IGROV-1): 24.7 µM (inactive)
- GI50 (SW-620): 26.7 µM (inactive)
- GI50 (OVCAR-8): 17.9 µM (inactive)
- GI50 (UACC-62): 19.2 µM (inactive)
- GI50 (MCF7): 34.7 µM (inactive)
- GI50 (T47D): 30.8 µM (inactive)
- GI50 (NCI-H460): 30.1 µM (inactive)
- GI50 (SK-OV-3): 24.7 µM (inactive)
- GI50 (NCI-H23): 26.8 µM (inactive)
- GI50 (HOP-92): 36.1 µM (inactive)
- GI50 (SK-MEL-5): 22 µM (inactive)
- GI50 (DU-145): 27.1 µM (inactive)
- GI50 (OVCAR-5): 29 µM (inactive)
- GI50 (CAKI-1): 22.2 µM (inactive)
- GI50 (OVCAR-3): 27.2 µM (inactive)
- GI50 (SN12C): 23 µM (inactive)
- GI50 (EKVX): 28.8 µM (inactive)
- GI50 (K562): 28.9 µM (inactive)
- GI50 (SK-MEL-28): 17.7 µM (inactive)
- GI50 (RXF 393): 33.7 µM (inactive)
- GI50 (A549): 31 µM (inactive)
- GI50 (HL-60): 30.1 µM (inactive)
- GI50 (LOX IMVI): 21.7 µM (inactive)
- GI50 (MDA-MB-231): 40.2 µM (inactive)
- GI50 (U-251): 33.7 µM (inactive)
- GI50 (SF-539): 20.5 µM (inactive)
- GI50 (UO-31): 23 µM (inactive)
- GI50 (MDA-N): 28.7 µM (inactive)
- GI50 (TK-10): 35.5 µM (inactive)
- GI50 (OVCAR-4): 20.1 µM (inactive)
- GI50 (SR): 13.5 µM (inactive)
- GI50 (MDA-MB-435): 33.6 µM (inactive)
- GI50 (M14): 28.1 µM (inactive)
- GI50 (CCRF-CEM): 18.1 µM (inactive)
- GI50 (786-0): 30.8 µM (inactive)
- GI50 (SF-268): 29.1 µM (inactive)
- GI50 (SF-295): 37.7 µM (inactive)
- GI50 (NCI/ADR-RES): 22.9 µM (inactive)
- GI50 (Malme-3M): 30.2 µM (inactive)
- GI50 (SNB-19): 30.8 µM (inactive)
- GI50 (NCI-H522): 14.4 µM (inactive)
- GI50 (COLO 205): 17.6 µM (inactive)
- GI50 (MOLT-4): 36 µM (inactive)
- GI50 (Hs-578T): 30.2 µM (inactive)
- GI50 (A498): 40 µM (inactive)
- GI50 (HOP-62): 33.1 µM (inactive)
- GI50 (HCT-15): 14.8 µM
- GI50 (PC-3): 43 µM (inactive)
- GI50 (SK-MEL-2): 27 µM (inactive)
- GI50 (RPMI-8226): 9.33 µM (inactive)
- GI50 (KM12): 13.6 µM (inactive)
- GI50 (HT-29): 20.1 µM (inactive)
